Reference: patent publication US8563067B2, “Extended shelf life and bulk transport of perishable organic liquids with low pressure carbon dioxide” (Cornell Research Foundation, Inc., priority 2004, dated 2013)

Columns and labels:
[1] = test system: aerobic bacteria (SPC) in raw milk; test: Standard Plate Count (SPC) of raw milk held under CO2 pressure, laboratory scale (Example 1); assay type: cell-based; details: for SPC increase / SPC reduction from initial SPC: 20° C.; for SPC reduction versus control: 1378 kPa
Text: The apparatus for pressurizing and holding raw milk samples is shown in schematic form in FIG. 9 and consisted of two 13-ml stainless steel 1.27-cm OD cylindrical vessels 60, 61; one vessel 60 was pressurized while the other served as a control 61. Compressed and filtered CO2 from a high-pressure tank 62 was used (Empire Airgas, Inc, Elmira, N.Y.). The system consisted of pressure regulator 63, a fine metering valve 64 (NUPRO Company, Willoughby, Ohio), an on-off valve 65 (Circle Seal, Anaheim, Calif.) and a check valve 66 (NUPRO Company, Willoughby, Ohio). The fine metering valve controlled gas flow such that the time to reach desired pressure was less than five seconds. The gas entered the vertically positioned treatment vessel 60 from the bottom and was thus bubbled through the milk until the set pressure was reached. A check valve 66 was placed immediately before the inlet to the pressure vessel to prevent the backward flow of the fluid milk into the gas inlet line. The outlet of the vessels consisted of a pressure gauge 67 and a high-pressure release valve 68 (High Pressure Equipment, Erie, Pa.). The release valve 68 was kept tightly closed during treatment. The control vessel 61 was closed off from both ends but not connected to the carbon dioxide line inlet and outlet lines.
(§1) Milk samples were mixed and 5 ml of milk added into the treatment and control vessels. The treatment vessel was connected to the apparatus and the control vessel closed off. Both vessels were placed in the water bath. When the desired temperatures were attained in both treatment and control vessels, CO2 was introduced through the bottom of the treatment vessel until the set pressure was reached. The CO2 pressure was maintained throughout the test period. When the desired time was reached, the CO2 inlet was turned off, the pressure release valve on the outlet line opened, and the pressure released in under one minute. After depressurization, the treatment and control vessels were removed from the water bath and their external surfaces were wiped dry, sanitized with 95% ethanol, detached from the apparatus and transferred into sterile containers for dilution and plating.
Short (<1 h) and longer term (1, 4 and 9 day) experiments were conducted. Raw milk (Northeast Dairy Herd Improvement Association, Inc.; Ithaca, N.Y.) in 5 ml aliquots was treated at each of the following combinations of CO2 pressure, temperature, and time (kPa/° C./min): 1378/5/15, 2757/5/5, 3446/5/5. In longer term studies, raw milk from the T&R Center was first stored at 6° C./48 h so that the SPC were at detectable levels at treatment initiation. […]
Raw milk from the T&R Center was monitored for changes in aerobic bacteria, gram-negative bacteria and total Lactobacillus spp. as follows: CO2 pressures of 0 (control), 68, 172, 344, 516 and 689 kPa, at 6.1° C. for 4-days. SPC, gram-negative bacteria and total Lactobacillus spp. were enumerated before (day 0) and after (day 4) treatment. Gram negative bacteria were enumerated on MacConkey Agar (Difco Manual, Becton Dickinson & Co., Sparks, Md.), a selective and differential media which can be used to discriminate between lactose fermenting and non-lactose fermenting gram-negative bacteria. Use of this media allows a one-step method of obtaining estimates of both coliform and non-coliform gram negative bacteria. Coliform bacteria may include species of Escherichia, Klebsiella and Enterobacter, potential pathogens and/or spoilage organisms. Non-coliform gram negative bacteria may include spoilage organisms such as pseudomonads or potential pathogens such as Salmonella spp. or Shigella spp. Numbers of Lactobacillus spp. populations were estimated using acidified (adjusted to pH 5.5 with glacial acetic acid) Lactobacillus MRS agar (Difco Manual, Becton Dickinson & Co., Sparks, Md.) after incubation under anaerobic conditions; suspect colonies were confirmed by gram stain. […]

thermoduric bacteria = test: Thermoduric bacteria (laboratory pasteurization count) in raw milk under CO2 pressure (Example 1); assay type: cell-based; details: 4° C.
Protocol: as §1
The progression of these counts (total, Coliform/E. coli and thermoduric bacteria) in the treatment and control samples was tracked by conducting checks on the total aerobic counts (SPC) on treatment days 4 and 6. Based on the levels of total counts on days 4 and 6, analyses of total coli forms/E. coli and thermoduric bacteria after day 6 were conducted either in 1-day or 2-day intervals. The control sample final count was measured on days 4 and 6.
Initial total, coliform, and thermoduric counts were each determined for control and treated samples. Thermoduric organisms were enumerated by the laboratory pasteurization count (LPC) method described in the Standard Methods for the Examination of Dairy Products (Houghtby et al., 1992). The 3M Petri film count plate (3M Microbiology Products, St. Paul, Minn.) was used to enumerate total coli forms and Escherichia coli in the raw, treated and control milk samples.

O=C=O [CO2, carbon dioxide]
microbial growth compared to control milks ([1]; 68, 172, 344, 516 and 689 kPa, 6.1° C., 4 days): significantly reduced microbial growth | SPC increase from initial SPC ([1]; 68 kPa, 6.1° C., 4 days): 1.28 log10 cfu/ml | SPC increase ([1]; 68 kPa, 24 h): 1.07 log10 cfu/ml | SPC increase from initial SPC ([1]; 172 kPa, 6.1° C., 4 days): 1.10 log10 cfu/ml | SPC increase ([1]; 172 kPa, 24 h): 0.59 log10 cfu/ml | decrease in counts (SPC) ([1]; 344 kPa CO2, 24 h, 10° C.): 0.31 log10 cfu/ml | SPC increase from initial SPC ([1]; 344 kPa, 6.1° C., 4 days): 0.94 log10 cfu/ml | SPC reduction from initial SPC ([1]; 344 kPa, 24 h): 0.39 log10 | decrease in counts (SPC) ([1]; 516 kPa CO2, 24 h, 10° C.): 0.56 log10 cfu/ml | SPC of treated samples versus initial untreated samples ([1]; 516 kPa CO2 pressure, 6.1° C., 4 days): not significantly different | SPC increase from initial SPC ([1]; 516 kPa, 6.1° C., 4 days): 0.82 log10 cfu/ml | SPC reduction from initial SPC ([1]; 516 kPa, 24 h): 0.62 log10 | time for treated milk to reach SPC of 10^5 cfu/ml ([1]; 689 kPa CO2, 4° C.): 8 days | decrease in counts (SPC) ([1]; 689 kPa CO2, 24 h, 10° C.): 0.71 log10 cfu/ml | SPC counts, Treated, 4 Days ([1]; 689 kPa CO2 pressure, 4° C., 4 days, raw milk): 7.8 * 10^2b cfu/ml | SPC counts, Treated, 6 Days ([1]; 689 kPa CO2 pressure, 4° C., 6 days, raw milk): 4.4 * 10^4c cfu/ml | SPC counts, Treated, 8 Days ([1]; 689 kPa CO2 pressure, 4° C., 8 days, raw milk): 9.7 * 10^4d cfu/ml | SPC counts, Treated, 9 Days ([1]; 689 kPa CO2 pressure, 4° C., 9 days, raw milk): 2.4 * 10^5e cfu/ml | extension of treatment holding time compared to control ([1]; 689 kPa, 4° C.): at least four days | treated milk SPC ([1]; 689 kPa, 4° C., 6 days): 4.64 log10 cfu/ml | treated milk SPC ([1]; 689 kPa, 4° C., 8 days): 4.99 log10 cfu/ml | treated milk SPC ([1]; 689 kPa, 4° C., 9 days): 5.37 log10 cfu/ml | treated milk SPC ([1]; 689 kPa, 4° C., four days (from 3.48)): 2.89 log10 cfu/ml | SPC lower than initial counts ([1]; 689 kPa, 6.1° C., 4 days): 0.89 log10 cfu/ml | SPC lower than the controls ([1]; 689 kPa, 6.1° C., 4 days): 3.48 log10 cfu/ml | difference in SPC between control and test milks ([1]; 689 kPa, 24 h, 10° C.): 2.68 log10 cfu/ml | SPC reduction from initial SPC ([1]; 689 kPa, 24 h): 0.82 log10 | SPC reduction versus control ([1]; 15 min): 0.33 log10 | SPC reduction versus control ([1]; 30 min): 0.39 log10 | SPC of raw milk compared to untreated controls ([1]; all time-pressure combinations, even 68 kPa and 20° C.): significantly reduced | Thermoduric Bacteria counts, Treated, 4 Days (thermoduric bacteria; 689 kPa CO2 pressure, 4 days, raw milk): 1.0 * 10^0 cfu/ml | Thermoduric Bacteria counts, Treated, 6 Days (thermoduric bacteria; 689 kPa CO2 pressure, 6 days, raw milk): 9.0 * 10^0m cfu/ml | Thermoduric Bacteria counts, Treated, 8 Days (thermoduric bacteria; 689 kPa CO2 pressure, 8 days, raw milk): 2.1 * 10^1n cfu/ml | Thermoduric Bacteria counts, Treated, 9 Days (thermoduric bacteria; 689 kPa CO2 pressure, 9 days, raw milk): 3.7 * 10^1o cfu/ml | total thermoduric bacteria counts in treated milk (thermoduric bacteria; 689 kPa, up to 9 days): Neither E. coli nor total thermoduric bacteria counts increased
